Source: patent US9439854B2, “Liquid pharmaceutical formulations of palonosetron” (Helsinn Healthcare SA, priority 2003, dated 2016)
One block for each compound: values may come before it.

How the values were obtained:
[1] = effect of pH on stability of formulations containing palonosetron hydrochloride at 80° C.; format: physicochemical; details: pH 2.0, 5.0, 7.4 and 10.0 tested
Procedure: A study was conducted to determine the effect of pH on formulations containing palonosetron hydrochloride, measuring the stability at 80° C. at pH 2.0, 5.0, 7.4, and 10.0.

[2] = physical and chemical stability of palonosetron HCl in infusion solutions (without dexamethasone); format: physicochemical; details: 5 and 30 μg/mL in 4 infusion solutions, PVC bags; 14 days at 4° C. in the dark, 48 hours at 23° C. under fluorescent light
Procedure: The physical and chemical stability of palonosetron HCl was studies in concentrations of 5 μg/mL and 30 μg/mL in 5% dextrose injection, 0.9% sodium chloride injection, 5% dextrose in 0.45% sodium chloride injection, and dextrose 5% in lactated Ringer's injection. The admixtures were evaluated over 14 days at 4° C. in the dark and for 48 hours at 23° C. under fluorescent light. Test samples of palonosetron HCl were prepared in polyvinyl chloride (PVC) bags of the infusion solutions at concentrations of 5 and 30 μg/mL. Evaluations for physical and chemical stability were performed on samples taken initially and after 1, 3, 5, 7, and 14 days of storage at 4° C. and after 1, 4, 24, and 48 hours at 23° C. Physical stability was assessed using visual observation in normal room light and using a high-intensity monodirectional light beam. In addition, turbidity and particle content were measured electronically. Chemical stability of the drug was evaluated by using a stability-indicating high performance liquid chromatographic (HPLC) analytical technique.

[3] = physical and chemical stability of palonosetron HCl admixed with dexamethasone; format: physicochemical; details: palonosetron HCl 5 or 25 μg/mL with dexamethasone 0.2, 0.4 or 0.33 mg/mL in 5% dextrose or 0.9% sodium chloride; 14 days at 4° C., 48 hours at 23° C.
Procedure: The physical and chemical stability of palonosetron HCl 0.25 mg admixed with dexamethasone (as sodium phosphate) 10 mg or 20 mg in 5% dextrose injection or 0.9% sodium chloride injection in polyvinyl chloride (PVC) minibags, and also admixed with dexamethasone (as sodium phosphate) 3.3 mg in 5% dextrose injection or 0.9% sodium chloride injection in polypropylene syringes at 4° C. in the dark for 14 days and at 23° C. exposed to normal laboratory fluorescent light over 48 hours, was studied. Test samples of palonosetron HCl 5 μg/mL with dexamethasone (as sodium phosphate) 0.2 mg/mL and also 0.4 mg/mL were prepared in polyvinyl chloride (PVC) minibags of each infusion solution. Additionally, palonosetron HCl 25 μg/mL with dexamethasone (as sodium phosphate) 0.33 mg/mL in each infusion solution were prepared as 10 mL of test solution in 20-mL polypropylene syringes. […] Physical stability was assessed using visual observation in normal room light and using a high-intensity monodirectional light beam. In addition, turbidity and particle content were measured electronically. Chemical stability of the drug was evaluated by using a stability-indicating high performance liquid chromatographic (HPLC) analytical technique.

[4] = formulation optimization study (concentration ranges, 24 lots); format: physicochemical; details: 0.05 mg/mL to 5.0 mg/mL; citrate buffer 0 to 80 mM; EDTA 0 to 0.10%
Procedure: A formulation optimization study was performed using an experimental design software. Twenty-four lots of drug product were analyzed to investigate the appropriate concentration ranges for palonosetron hydrochloride (0.05 mg/mL to 5.0 mg/mL), citrate buffer (0 to 80 mM) and EDTA (0 to 0.10%).

[5] = target: T1, 5-HT3 receptor (Homo sapiens, UniProt P46098); details: clinical investigations; cited from earlier work
T1 sequence (P46098 24-478): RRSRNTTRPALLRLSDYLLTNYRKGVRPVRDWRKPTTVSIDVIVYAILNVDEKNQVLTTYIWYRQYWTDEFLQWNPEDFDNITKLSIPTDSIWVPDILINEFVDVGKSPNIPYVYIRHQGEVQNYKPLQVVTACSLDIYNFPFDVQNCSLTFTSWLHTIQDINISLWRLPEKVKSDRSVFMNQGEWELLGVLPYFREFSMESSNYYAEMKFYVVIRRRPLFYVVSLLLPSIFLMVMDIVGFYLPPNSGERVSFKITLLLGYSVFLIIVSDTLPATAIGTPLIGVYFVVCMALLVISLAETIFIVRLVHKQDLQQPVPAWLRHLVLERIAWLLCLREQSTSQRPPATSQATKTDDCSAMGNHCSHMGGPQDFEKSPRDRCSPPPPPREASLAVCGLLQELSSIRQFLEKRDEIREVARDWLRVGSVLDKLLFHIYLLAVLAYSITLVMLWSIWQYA

[6] = clinical investigations; cited from earlier work

- pH of greatest stability [1]: most stable at pH 5.0
- chemical stability (loss of drug, HPLC) [2]: little or no loss
- physical stability (visual, turbidity, particle content) [2]: physically stable throughout the study
Compound: Cl.O=C1c2cccc3c2[C@H](CCC3)CN1[C@@H]1CN2CCC1CC2 [palonosetron hydrochloride]
- physical compatibility (visual, turbidity, particle content) [3]: physically compatible throughout the study
- chemical stability as a function of palonosetron concentration [4]: greatest stability seen at the lowest palonosetron concentrations

Compound: O=C1c2cccc3c2[C@H](CCC3)CN1[C@@H]1CN2CCC1CC2 [palonosetron, (3aS)-2,3,3a,4,5,6-Hexahydro-2-[(S)-1-Azabicyclo[2.2.2]oct-3-yl]2,3,3a,4,5,6-hexahydro-1-oxo-1Hbenz[de]isoquinoline]
- potency relative to most existing 5-HT3 receptor antagonists [5]: an order of magnitude more potent than most existing 5-HT3 receptor antagonists
- reduction of delayed-onset nausea induced by chemotherapeutic agents [5]: effective to reduce delayed-onset nausea
- half-life [6]: about 40 hours

- chemical stability (loss of drug, HPLC) [3]: little or no loss
Compound: C[C@@H]1C[C@H]2[C@@H]3CCC4=CC(=O)C=C[C@]4(C)[C@@]3(F)[C@@H](O)C[C@]2(C)[C@@]1(O)C(=O)CO [dexamethasone]
